# Measured values published in patent publication US6642389B2, “Oxazole derivatives” (Hoffmann-La Roche Inc., priority 2001, dated 2003).
# Assays:
# [1] = molecular target: T1, PPARα (Homo sapiens, UniProt Q07869); assay: Radioligand binding assay, PPARα receptor binding (GST-PPARα-LBD fusion protein)
# T1 sequence (Q07869 167-468 limits assumed): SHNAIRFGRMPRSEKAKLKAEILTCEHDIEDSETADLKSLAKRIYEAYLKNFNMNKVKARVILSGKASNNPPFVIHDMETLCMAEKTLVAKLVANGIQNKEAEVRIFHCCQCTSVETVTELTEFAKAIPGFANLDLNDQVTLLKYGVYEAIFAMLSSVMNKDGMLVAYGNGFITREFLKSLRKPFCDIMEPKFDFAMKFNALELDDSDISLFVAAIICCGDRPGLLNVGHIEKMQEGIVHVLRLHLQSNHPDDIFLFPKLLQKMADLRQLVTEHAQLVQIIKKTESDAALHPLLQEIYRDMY
# Excerpt: (§1) Full-length cDNA clones for human PPARα and mouse PPARγ were obtained by RT-PCR from human adipose and mouse liver cRNA, respectively, cloned into plasmid vectors and verified by DNA sequencing. […] To accomplish this, the portions of the cloned sequences encoding the LBDs were amplified from the full-length clones by PCR and then subcloned into the plasmid vectors pGEX4T-2(Pharmacia) and pFA-CMV(Stratagene). Final clones were verified by DNA sequence analysis.
# (§2) Induction, expression, and purification of GST-LBD fusion proteins were performed in E. coli strain BL21(pLysS) cells by standard methods (Ref: Current Protocols in Molecular Biology, Wiley Press, edited by Ausubel et al.).
# PPARα receptor binding was assayed in TKE10 (10 mM Tris-HCl, pH 8, 50 mM KCl, 2 mM EDTA, 0.1 mg/ml fatty acid free BSA and 10 mM DTT). […]
# PPARγ receptor binding was assayed in TKE50 (50 mM Tris-HCl, pH 8, 50 mM KCl, 2 mM EDTA, 0.1 mg/ml fatty acid-free BSA and 10 mM DTT). […] All binding assays were performed in 96 well plates and the amount of bound ligand measured on a Packard TopCount using OptiPlates (Packard). Nonspecific binding was determined in the presence of 10^−4 M unlabelled compound. […]
# [2] = molecular target: T2, PPARγ (Mus musculus, UniProt P37238); assay: Luciferase transcriptional reporter gene assay, pFA-PPARγ-LBD in BHK21 cells; type: cell-based; conditions: Gal4-PPARγ-LBD
# T2 construct: expressed in transfected cells; host or cells: BHK21 (ATCC CCL10)
# T2 sequence (P37238 204-505): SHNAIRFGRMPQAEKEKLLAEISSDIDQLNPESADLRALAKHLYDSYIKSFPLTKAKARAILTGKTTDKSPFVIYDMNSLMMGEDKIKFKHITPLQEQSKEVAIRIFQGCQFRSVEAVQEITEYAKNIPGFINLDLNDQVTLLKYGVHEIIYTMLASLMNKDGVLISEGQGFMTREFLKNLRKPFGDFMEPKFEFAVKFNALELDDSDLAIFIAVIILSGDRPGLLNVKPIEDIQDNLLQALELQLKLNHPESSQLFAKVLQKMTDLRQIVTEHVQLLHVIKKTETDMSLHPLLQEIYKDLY
# Excerpt: as §1
# (§3) Baby hamster kidney cells (BHK21 ATCC CCL10) were grown in DMEM medium containing 10% FBS at 37° C. in a […]:5% CO2 atmosphere. Cells were seeded in 6 well plates at a density of 10^5 Cells/well and then batch-transfected with either the pFA-PPARγ-LBD or pFA-PPARα-LBD expression plasmids plus the pFR-luc reporter plasmid (Stratagene) and an expression plasmid encoding the secretable form of alkaline phosphatase (SEAP) as a normalization control. […] Six hours following transfection, the cells were harvested by trypsinization and seeded in 96 well plates at a density of 10^4 cells/well. After 24 hours to allow attachment of cells, the medium was removed and replaced with 100 ul of phenol red-free medium containing the test substances or control ligands (final. 0.1% DMSO). Following incubation of the cells for 24 hours with substances, 50 ul of the supernatant was recovered and analyzed for SEAP activity (Roche Molecular Biochemicals). The remainder of the supernatant was discarded, 50 ul PBS was added per well followed by one volume of Luciferase Constant-Light Reagent (Roche Molecular Biochemicals) to lyse the cells and initiate the luciferase reaction. Luminescence for both SEAP and luciferase was measured in a Packard TopCount. Luciferase activity was normalized to the SEAP control and transcriptional activation in the presence of a test substance was expressed as fold-activation over cells incubated in the absence of the substance. EC50 values were calculated using the XLfit program (ID Business Solutions Ltd. UK).
# [3] = molecular target: T1, PPARα; assay: Luciferase transcriptional reporter gene assay, pFA-PPARα-LBD in BHK21 cells; type: cell-based; design: expressed in transfected cells; host or cells: BHK21 (ATCC CCL10); conditions: Gal4-PPARα-LBD
# Excerpt: as §1, §3
# [4] = molecular target: T3, PPARγ (Mus musculus, UniProt P37238); assay: Radioligand binding assay, PPARγ receptor binding (GST-PPARγ-LBD fusion protein, SPA); conditions: scintillation proximity
# T3 construct: made in house; host or cells: E. coli BL21(pLysS)
# T3 sequence (P37238 174-475 isoform P37238-2): T2 sequence (P37238 204-505)
# Excerpt: as §1, §2
# PPARγ receptor binding was assayed in TKE50 (50 mM Tris-HCl, pH 8, 50 mM KCl, 2 mM EDTA, 0.1 mg/ml fatty acid-free BSA and 10 mM DTT). For each 96 well reaction an 140 ng equivalent of GST-PPARγ-LBD fusion protein was bound to 10 ug SPA beads (PharmaciaAmersham) in a final volume of 50 ul by shaking. The resulting slurry was incubated for 1 h at RT and centrifuged for 2 min at 1300 g. The supernatant containing unbound protein was removed and the semidry pellet containing the recptor-coated beads was resolved in 50 ul of TKE. For radioligand binding e.g. 10000 dpm 2(S)-(2-benzoyl-phenylamino)-3-{4-[1,1-ditritio-2-(5-methyl-2-phenyl-oxazol-4-yl)-ethoxy]-phenyl}-propionic acid in 50 ul were added, the reaction incubated at RT for 1 h and scintillation proximity counting performed. All binding assays were performed in 96 well plates and the amount of bound ligand measured on a Packard TopCount using OptiPlates (Packard). Nonspecific binding was determined in the presence of 10^−4 M unlabelled compound. Dose response curves were done in triplicates within a range of concentration from 10^−10 M to 10^−4 M.
structure (smiles),measurement,setting,value
"CCO/C(=C\c1ccc(OCCc2nc(-c3ccccc3)oc2C)c2ccoc12)C(=O)O [Example 83, 2Z-Ethoxy-3-{4-[2-(5-methyl-2-phenyl-oxazol-4-yl)-ethoxy]-benzofuran-7-yl}-acrylic acid]",IC50,[1],109 nM
same,EC50,[2],188 nM
same,EC50,[3],746 nM
same,IC50,[4],25 nM
"CCCCOC(Cc1ccc(OCCc2nc(-c3ccccc3)oc2C)c2ccccc12)C(=O)O (stereo not shown) [Example 10, 2-Butoxy-3-{4-[2-(5-methyl-2-phenyl-oxazol-4-yl)-ethoxy]-naphthalen-1-yl}-propionic acid]",melting point,,88 to 90 °C (dec.)
"CCCCOC(Cc1ccc(OCCc2nc(-c3ccccc3)oc2C)c2ccsc12)C(=O)O (stereo not shown) [Example 4, 2-Butoxy-3-{4-[2-(5-methyl-2-phenyl-oxazol-4-yl)-ethoxy]-benzo[b]thiophen-7-yl}-propionic acid]",melting point,,123 °C (dec.)
"C/C(=C/C(=O)c1ccc(C(F)(F)F)cc1)NC(Cc1ccc(OCCc2nc(-c3ccccc3)oc2C)c2ccsc12)C(=O)O (racemic) [Example 106, [rac]-2-[1-Methyl-3-oxo-3-(4-trifluoromethyl-phenyl)-(Z)-propenylamino]-3-{4-[2-(5-methyl-2-phenyl-oxazol-4-yl)-ethoxy]-benzo[b]thiophen-7-yl}-propionic acid]",IC50,[1],259 nM
same,EC50,[2],501 nM
same,EC50,[3],138 nM
same,IC50,[4],112 nM
"COC(Cc1ccc(OCCCc2nc(-c3ccc(Cl)cc3)oc2C)c2ccsc12)C(=O)O (racemic) [Example 48, [rac]-3-(4-{3-[2-(4-Chloro-phenyl)-5-methyl-oxazol-4-yl]-propoxy}-benzo[b]thiophen-7-yl)-2-methoxy-propionic acid]",EC50,[2],464 nM
same,EC50,[3],8 nM
same,IC50,[4],3170 nM
